Values of other authors, collected in patent US20100330607A1, “PHOTOSWITCH-ENABLED ION CHANNEL ASSAY SYSTEM” (Photoswitch Biosciences, Inc., priority 2009, published 2010).
Read-outs that look alike come from different tables or passages of the source. Each block holds one molecule with its values, some of them ahead of it.

Experiments:
[1] = read-out: Kd for Ca^2+
late INa [2] = conditions: ventricular myocytes from dog hearts
late INa [3] = conditions: ventricular myocytes from guinea-pig hearts
[4] = in the dark, in solution

Kd [1]: 0.39 µM
Molecule: Cc1ccc(N(CC(=O)O)CC(=O)O)c(OCCOc2cc(-c3c4cc(Cl)c(=O)cc-4oc4cc(O)c(Cl)cc34)ccc2N(CC(=O)O)CC(=O)O)c1 [Fluo-3]

Molecule: COc1ccccc1OCC(O)CN1CCN(CC(=O)Nc2c(C)cccc2C)CC1 (centres unmarked) [ranolazine]
inhibition of the late INa (late INa [2]): concentration-, voltage- and frequency-dependent inhibition
inhibition of the late INa (late INa [3]): concentration-, voltage- and frequency-dependent inhibition

Kd [1]: 0.345 µM
Molecule: Fluo-4

Molecule: Maleimide-Azobenzene-Glutamate [MAG]
rate of thermal relaxation, from cis to trans [4]: about 18 mins
